Experimental findings from US20030135033A1, “Compounds and methods for the identification and/ or validation of a target” (priority 2002, published 2003) are described below.

Data set [1] has as its system PTEN mRNA. The experiment in a line: Immunoblot of PTEN and phosphorylated Akt after GeneBloc transfection of HeLa cells. The data set is classed as cell-based, human. As to conditions: 30 nM, 48 h. How it is done: More particularly, HeLa cells (380.000 cells/plate) and PC-3 cells (450.000 cells/plate) were transfected in parallel on 10 cm plates. Each cell line was treated for 48 h in duplicate samples with 30 nM of PTEN GeneBloc 53 or GBC. The cell extracts were analyzed by immunoblotting for the relative amounts of p110, PTEN and phosphorylated Akt (P*-Akt) as indicated on the right. The band which migrates just above the PTEN signal was caused by unspecific reaction of the secondary antibody.
More particularly, a schematic pathway with PTEN inhibiting PI-3K activity is shown which would normally phosphorylate Akt thus leading to proliferation, survival and migration of HeLa cells as a model system for PTEN +/+ cells. FIG. 9 B presents the Western immunoblot analysis of an experiment studying the influence of PTEN specific antisense oligonucleotide or a control antisense nucleotide designated as mismatch GeneBloc™. PTEN is only present in the control sample, but is absent when PTEN-specific antisense oligonucleotides are used. The successful knockdown of PTEN causes phosphorylation of Akt, indicative of induction of the signalling pathway. […] Growth on matrigel is used as a surrogate in vitro assay for metastatic or invasive cell growth. The cells treated with PTEN third generation antisense oligonucleotide (“PTEN GeneBloc™”) shown in FIG. 9C have a significant growth advantage over the control-treated cells.
Transfections were carried out in 96 well or 10-cm plates (at 30% to 50% confluency) by using various cationic lipids such as Oligofectamine, Lipofectamine (Life Technologies), NC388 (Ribozyme Pharmaceuticals, Inc., Boulder, CO), or FuGene 6 (Roche) according to the manufacturer's instructions. […]
Cells were washed twice with cold phosphate-buffered saline and lysed at 4° C. in lysis buffer containing 20 mM Tris (pH 7.5), 137 mM NaCl, 15% (vol/vol) glycerol, 1% (vol/vol) Nonidet P-40 (NP-40), 2 mM phenylmethylsulfonyl fluoride, […], 20 mM leupeptin, 2 mM benzamidine, 1 mM sodium vanadate, 25 mM […]-glycerol phosphate, 50 mM NaF and 10 mM NaPPi. Lysates were cleared by centrifugation at 14,000× g for 5 minutes and aliquots of the lysates were analyzed for protein expression by Western-blotting: Samples were separated by SDS-PAGE and transferred to nitrocellulose-filters (Schleicher & Schuell). […] Bound antibody was detected using anti-mouse- or anti-rabbit-conjugated horse radish peroxidase (Transduction Laboratories, BD) in TBST, washed, and developed using the SuperSignal West Dura (Pierce) or ECL (Amersham) chemoluminescence substrates.
The effect of GeneBloc induced transient knock down of PTEN expression was to be compared to the loss of PTEN function in human tumor cells. […] After 2 days the cell extracts were analyzed by Western-blotting. […]
In general terms: Immunoblotting shows a protein as a band on a membrane.

The subject of data set [2] is 3Y1 cells. In words: Rate of DNA synthesis by incorporation of bromodeoxyuridine. As to conditions: synchronized in low serum, released by serum stimulation. It counts as cell-based, rat. How it is done:
3Y1 cells plated in 96-wells at 1600 cells per well were transfected in triplicate samples with GeneBloc molecules. After ca. 30 h the cells were starved in DMEM containing 10 mM HEPES (pH 7.2) under continuous GeneBloc treatment. The cells were released into the cell cycle at various time points by addition of 10% serum. Control cells were incubated with 5 μg/ml aphidicolin for 18 h. After pulse-labeling with 10 μM 5-bromo-2′-deoxyururidine (BrdU) for the last 2 h the cells were fixed and permeabilized. The relative amount of BrdU incorporated into each sample was determined by using the Cell Proliferation ELISA, BrdU (colorimetric) (Roche) according to the manufacturer's instructions. Incorporated BrdU was detected by measuring the absorbance at 405 nm and 490 nM using the Spectra Max 190 (Molecular Devices).
3Y1 cells were used, because these untransformed rat fibroblasts are very sensitive to transfection conditons and are prone to arrest or even undergo apoptosis. Subconfluent 3Y1 cells in 96 wells were treated with PTEN GeneBloc 48, GeneBloc 53 or GBC as a control. On day 2 the cells were synchronized in low serum. During days 3 and 4 the cells were released into the cell cycle by serum stimulation at various time points. BrdU was added for the last 2 h of incubation. Untreated cells and cells that were treated with Aphidicolin for 24 h were used as controls. RNA knock down was analyzed in parallel samples. The rate of synthesis was determined via the amount of incorporated BrdU.

Turning to “ucuccuuTTGTTTCTGcuaacga (UCUCCUUTTGTTTCTGCUAACGA; chemistry not fully specified) [PTEN 53, third generation antisense oligonucleotide (GeneBloc) against PTEN]”, the entries for the “PTEN (immunoblot)” value in data set [1] and in data set [1] (listed as PTEN GeneBloc 53) were “degradation of PTEN mRNA” and “strong reduction in PTEN protein”, respectively. Moreover, the “phosphorylated Akt (P*-Akt) (immunoblot)” value in data set [1] is “generation of phosphorylated Akt”; in data set [1] (listed as PTEN GeneBloc 53) it was “substantial increase in Akt phosphorylation”. Moreover, the “rate of DNA synthesis (incorporated BrdU)” value in data set [2] is “strong increase in DNA synthesis after 18 h”.
